Measured values as given in US5770688A, “Method and composition for the treatment of mammalian HIV infection” (GSF-Forschungszentrum fur Umwelt und Gesundheit GmbH, priority 1989, dated 1998).

How the values were obtained:
[1] = tested on: KE37-1/111β (HIV-infected T-lymphoma cells); test: MTT test, growth of HIV infected T-lymphoma cells; assay type: cell-based
Description: (§1) The KE37-1 (uninfected) and KE37-1/111β (infected) cell lines discussed below are commercially available from the Dr. Robert Gallows Laboratory of the NIH in the United States of America and grown in a medium of RPMI 1640 (GIBCO) and further supplemented with 10% fetal calf serum which contained approximately 100 units of penicillin, 100 μg streptomycin, and approximately 0.25 μg fungizone (Amphotericin B) per milliliter. The human mesenchymal cell lines LC5 and LC5-HIV, discussed below, are deposited with the Collection De L'Institut Pasteur of Paris, France on Mar. 9, 1989 and given the accession numbers I-842 and I-843, respectively. The LC5 and LC5-HIV cell lines were grown in a medium of RPMI 1640 and supplemented with 10% fetal calf serum.
Referring more particularly to FIGS. 1-4, melittin (Seq. ID NO:1) and its specified analogues were tested for their effect on HIV-infected T-lymphoma cells. In this regard the following cell lines were employed in the testing: KE37-1 (uninfected) and KE37-1/111S (infected with HTLV-111β). These infected cells were incubated for a period of seven days under test conditions at a temperature of 37° C. and in the presence of 5% CO2. A culture medium of RPMI 1640 (GIBCO) was employed and was further supplemented with 10% fetal calf serum which contained approximately 100 units of penicillin, 100μ of streptomycin, and approximately 0.25μ fungizone (Amphotericin B) per milliliter. This equals 1 milliliter of antibiotic-antimycotic solution (GIBCO Catalogue No. 043-05240 per 100 ml. of medium.) After a one week incubation period in the presence of various concentrations of the above-identified substances, which were added fresh daily to the medium, the following tests were carried out with the cultures. A first test was conducted for purposes of determining the relative cell concentration as a function of the number of HIV infected cells present by employing an MTT test. […] The optical density (OD) of the solution was determined at=600 nm. […]

[2] = tested on: KE37-1 (uninfected) cells; test: MTT test, growth of non-infected cells; assay type: cell-based; details: KE37-1, seven days incubation; 10080 min
Description: as §1
Referring more particularly to FIGS. 1-4, melittin (Seq. ID NO:1) and its specified analogues were tested for their effect on HIV-infected T-lymphoma cells. In this regard the following cell lines were employed in the testing: KE37-1 (uninfected) and KE37-1/111S (infected with HTLV-111β). These infected cells were incubated for a period of seven days under test conditions at a temperature of 37° C. and in the presence of 5% CO2. […] The optical density (OD) of the solution was determined at=600 nm. […]

Rauscher leukemia virus = test: Example 2: Rauscher leukemia virus (RLV) model; assay type: in vivo, Balb/c mice
Excerpt: As noted earlier, the Rauscher leukemia virus (RLV) model has been used successfully to test a number of compounds like nucleoside analogues, that is, AZT, and which has been utilized, heretofore, to inhibit HIV replication. This is discussed in further detail in the article authored by R. M. Ruprechet, et. al. and which is entitled Development of Antiviral Treatment Strategies in Murin Models, RES. Human Retroviruses, 8,997-1011 (1992). Those skilled in the art will recognized that RLV belongs to the Onkoviruses, which is a subfamily of the retrovirus family, and not to the Lentiviruses family, such as is the case with HIV. Therefore, the RLV model provides a suitable basis upon which one may test substances which interfere with the replication steps which are common, or similar, among related retroviruses. As noted earlier, inasmuch as the melittin (Seq. ID NO:1) appears to inhibit HIV transcription in vitro, then it appears that RLV is a suitable model to test the effect of melittin on in vivo replication inhibition.
The source of virus for the present example was secured from the leukemic spleens of RLV infected Balb/c mice. The virus titer of the pool of leukemic spleens was determined by titration. This titration method is discussed in the article authored by Schmidt et al., "Endogenous Murine Leukemia Viruses: frequency of radiation-activation and novel pathogenic effects of viral isolates." Leukemia Research 12, 393-403, (1988). The spleens were secured from 8 to 10 week old inbreed female Balb/c mice, and further from in mouse embryo fibroblasts. As noted earlier, virus replication in mice normally has been determined by the development of leukemia in the spleen. Additionally, the determination of in vitro virus replication has been measured heretofore by the number of virus protein producing cells which are stained with anti-RLV antibodies in an immuno-peroxidase staining test (IPF). Aliquots of the virus solutions were stored in liquid nitrogen and were again titrated in the fashion as noted above.
Stock virus solutions were diluted to provide solutions having a virus concentration of approximately 7×10^6 infectious units per milliliter. Following preparation of the solutions, 0.5 ml of these viral solutions were injected intraperitoneally (ip) into Balb/c mice that were 8 to 10 weeks old. […] As will be recognized by a study of FIG. 43 and FIG. 48, and following infection with the RLV, nearly 100% of the mice developed leukemia (splenomegaly) within approximately three weeks. […] The mean spleen weight development became less prominent. This is best seen by reference to FIG. 48 and in particular groups 8, 9 and 10.

[3] = all treated groups, regardless of schedule
[4] = group 1, after infection, intervals of 4 days
[5] = group 2, after infection, intervals of 2 days
[6] = group 3, after infection, daily

Gly-Ile-Gly-Ala-Val-Leu-Lys-Val-Leu-Thr-Thr-Gly-Leu-Pro-Ala-Leu-Ile-Ser-Trp-Ile-Lys-Arg-Lys-Arg-Gln-Gln-Amide [melittin]
level of growth of the cells ([1]; 2.5 μg per ml): appears not yet influenced | selective toxicity/growth inhibition of HIV infected cells, in words ([1]; FIGS. 1-4): appears to inhibit the growth of HIV infected cells selectively | concentration toxic to HIV infected cells ([1]; KE37-1/111β, seven days incubation, 10080 min): above 5 μg per ml | concentration toxic to non-infected cells [2]: above 5 μg per ml | animals that developed leukemia (Rauscher leukemia virus; [3]): 70% | mean spleen weight (Rauscher leukemia virus; [3]): 1.2 grams | spleen weights, treated vs untreated, in words (Rauscher leukemia virus; days 5 and 10, five administrations before and six after infection): quite similar with only a slight difference appearing on day 10 | leukemic animals, in words (Rauscher leukemia virus; days 5 and 15 (so in the source)): no leukemic animals could be found on days 5 and 15 | leukemic animals (Rauscher leukemia virus; [4]): 4 out of 6 | mean spleen weight (Rauscher leukemia virus; [4]): 1.1 grams | leukemic animals (Rauscher leukemia virus; [5]): 5 out of 6 | mean spleen weight (Rauscher leukemia virus; [5]): 1.3 grams | mean spleen weight (Rauscher leukemia virus; group 2, pre-treated, 5 injections, FIG. 45): 1.5 grams | leukemic animals (Rauscher leukemia virus; [6]): 5 out of 6 | mean spleen weight (Rauscher leukemia virus; [6]): 1.1 grams | mean spleen weight (Rauscher leukemia virus; group 3, pre-treated, 4 injections, FIG. 45): 1.5 grams | mean spleen weight (Rauscher leukemia virus; group 4, pre-treated, 3 injections, FIG. 45): 1.3 grams | mean spleen weight (Rauscher leukemia virus; group 5, once before infection and five times later in four day intervals): approximately 1.3 grams | number of leukemic animals (Rauscher leukemia virus; group 6, day 15, ten analyzed): one | mean spleen weight (Rauscher leukemia virus; group 6, single injection 12 hours before infection): 1.1 grams | mean spleen weight (Rauscher leukemia virus; group 7, single injection 24 hours before infection): 0.7 grams | animals that develop leukemia (Rauscher leukemia virus; group 8, day 21): 7 out of 10 | mean spleen weight (Rauscher leukemia virus; group 8, day 21): 1.2 grams | mean spleen weight (Rauscher leukemia virus; group 8, single injection 6 hours before infection): 0.9 grams | development of leukemia, in words (Rauscher leukemia virus; pre-treated animals, FIG. 45): nearly all of the pre-treated animals also developed leukemia
